Test system: MV-4-11 cells
Test: Gene expression microarray analysis (Affymetrix PrimeView) and GSEA
Assay type: cell-based, human
Parameters: RFU PODN (11730768_x_at) / Fold change /veh PODN (11730768_x_at) / RFU LINC00158 (11744669_a_at) / Fold change /veh LINC00158 (11744669_a_at) / RFU DUSP10 (11751237_a_at) / Fold change /veh DUSP10 (11751237_a_at) / RFU ID3 (11757404_x_at) / Fold change /veh ID3 (11757404_x_at) / RFU PLEKHG5 (11737974_s_at) / Fold change /veh PLEKHG5 (11737974_s_at) / RFU LRRC4B (11730491_at) / Fold change /veh LRRC4B (11730491_at) / RFU GIMAP4 (11747438_a_at) / Fold change /veh GIMAP4 (11747438_a_at) / RFU KRT8 (11758183_x_at) / Fold change /veh KRT8 (11758183_x_at) / RFU CNN1 (11734310_a_at) / Fold change /veh CNN1 (11734310_a_at) / RFU VPS37D (11726825_at) / Fold change /veh VPS37D (11726825_at) / RFU C10orf10 (11716522_x_at) / Fold change /veh C10orf10 (11716522_x_at) / RFU KIR2DL2 /// KIR2DL4 /// KIR2DL5A /// KIR2DL5B /// KIR2DS1 /// KIR2DS2 /// KIR2DS3 /// KIR2DS4 /// KIR3DL3 /// KIR3DL3 /// KIR3DS1 (11738374_at) / Fold change /veh KIR2DL2 /// KIR2DL4 /// KIR2DL5A /// KIR2DL5B /// KIR2DS1 /// KIR2DS2 /// KIR2DS3 /// KIR2DS4 /// KIR3DL3 /// KIR3DL3 /// KIR3DS1 (11738374_at) / RFU C1QL1 (11718748_at) / Fold change /veh C1QL1 (11718748_at) / RFU TMPRSS4 (11747572_a_at) / Fold change /veh TMPRSS4 (11747572_a_at) / RFU HAMP (11756126_x_at) / Fold change /veh HAMP (11756126_x_at) / RFU RNFT2 (11725882_a_at) / Fold change /veh RNFT2 (11725882_a_at) / RFU NR4A2 (11747474_a_at) / Fold change /veh NR4A2 (11747474_a_at) / RFU ABCC12 (11746883_a_at) / Fold change /veh ABCC12 (11746883_a_at) / RFU TMEM136 (11760407_x_at) / Fold change /veh TMEM136 (11760407_x_at) / RFU CLDN22 /// WWC2 (11732394_at) / Fold change /veh CLDN22 /// WWC2 (11732394_at) / RFU HLA-DPB1 (11760878_x_at) / Fold change /veh HLA-DPB1 (11760878_x_at) / RFU SPINT1 (11716480_a_at) / Fold change /veh SPINT1 (11716480_a_at) / RFU GAP43 (11754022_s_at) / Fold change /veh GAP43 (11754022_s_at) / RFU A4GNT (11735810_at) / Fold change /veh A4GNT (11735810_at) / RFU PRB3 (11715151_x_at) / Fold change /veh PRB3 (11715151_x_at) / RFU TUBB4B (11761932_at) / Fold change /veh TUBB4B (11761932_at) / RFU CAPN14 (11732068_a_at) / Fold change /veh CAPN14 (11732068_a_at) / RFU TMCC2 (11721928_a_at) / Fold change /veh TMCC2 (11721928_a_at) / RFU IRGQ (11745062_a_at) / Fold change /veh IRGQ (11745062_a_at) / RFU FAM174B (11720279_a_at) / Fold change /veh FAM174B (11720279_a_at) / RFU TMPRSS4 (11748680_a_at) / Fold change /veh TMPRSS4 (11748680_a_at) / RFU FAM212B (11763350_a_at) / Fold change /veh FAM212B (11763350_a_at) / RFU PLEKHG5 (11743358_a_at) / Fold change /veh PLEKHG5 (11743358_a_at) / RFU ZSCAN30 (11745921_a_at) / Fold change /veh ZSCAN30 (11745921_a_at) / RFU CMKLR1 (11741424_a_at) / Fold change /veh CMKLR1 (11741424_a_at) / RFU LOC101060620 /// MAPK8IP1 (11723275_at) / Fold change /veh LOC101060620 /// MAPK8IP1 (11723275_at) / RFU SPTSSB (11747773_x_at) / Fold change /veh SPTSSB (11747773_x_at) / RFU PRSS12 (11739890_at) / Fold change /veh PRSS12 (11739890_at) / RFU BIN1 (11741810_x_at) / Fold change /veh BIN1 (11741810_x_at) / RFU WNT11 (11732464_a_at) / Fold change /veh WNT11 (11732464_a_at) / RFU C10orf10 (11716521_a_at) / Fold change /veh C10orf10 (11716521_a_at) / RFU C5orf56 (11738089_at) / Fold change /veh C5orf56 (11738089_at) / RFU CYB561 (11721691_x_at) / Fold change /veh CYB561 (11721691_x_at) / RFU ANKRD19P (11752326_a_at) / Fold change /veh ANKRD19P (11752326_a_at) / RFU OR2T12 /// OR2T33 /// OR2T8 (11738714_s_at) / Fold change /veh OR2T12 /// OR2T33 /// OR2T8 (11738714_s_at) / RFU VCAN (11748164_a_at) / Fold change /veh VCAN (11748164_a_at) / RFU JSRP1 (11732532_at) / Fold change /veh JSRP1 (11732532_at) / RFU KRTAP10-11 (11738290_x_at) / Fold change /veh KRTAP10-11 (11738290_x_at) / RFU MYO3A (11730013_a_at) / Fold change /veh MYO3A (11730013_a_at) / RFU EBF3 (11725865_a_at) / Fold change /veh EBF3 (11725865_a_at) / RFU CAMK2N1 (11719241_x_at) / Fold change /veh CAMK2N1 (11719241_x_at) / RFU C5orf56 (11738088_a_at) / Fold change /veh C5orf56 (11738088_a_at) / RFU OLFML3 (11715873_a_at) / Fold change /veh OLFML3 (11715873_a_at) / RFU LOC100653217 /// NTM (11731650_a_at) / Fold change /veh LOC100653217 /// NTM (11731650_a_at) / RFU MAPK11 (11762145_a_at) / Fold change /veh MAPK11 (11762145_a_at) / RFU FIZ1 (11724087_x_at) / Fold change /veh FIZ1 (11724087_x_at) / RFU OASL (11726364_x_at) / Fold change /veh OASL (11726364_x_at) / RFU SOX15 (11748057_x_at) / Fold change /veh SOX15 (11748057_x_at) / RFU CD79A (11719716_a_at) / Fold change /veh CD79A (11719716_a_at) / RFU HIST1H1D (11736915_at) / Fold change /veh HIST1H1D (11736915_at) / RFU CASKIN2 (11723855_a_at) / Fold change /veh CASKIN2 (11723855_a_at) / RFU LOC730098 (11760151_x_at) / Fold change /veh LOC730098 (11760151_x_at) / RFU OR4N2 (11742367_at) / Fold change /veh OR4N2 (11742367_at) / RFU PRRT2 (11749266_a_at) / Fold change /veh PRRT2 (11749266_a_at) / RFU SNX32 (11753110_a_at) / Fold change /veh SNX32 (11753110_a_at) / RFU CDHR5 (11726645_a_at) / Fold change /veh CDHR5 (11726645_a_at) / RFU RCAN1 (11760418_a_at) / Fold change /veh RCAN1 (11760418_a_at) / RFU FAM167A (11723789_a_at) / Fold change /veh FAM167A (11723789_a_at) / RFU FAM26E (11764081_at) / Fold change /veh FAM26E (11764081_at) / RFU ISYNA1 (11749810_s_at) / Fold change /veh ISYNA1 (11749810_s_at) / RFU ACY1 (11761880_at) / Fold change /veh ACY1 (11761880_at) / RFU 11764098_at / Fold change /veh 11764098_at / RFU SAMD14 (11745864_x_at) / Fold change /veh SAMD14 (11745864_x_at) / RFU NPB (11741838_a_at) / Fold change /veh NPB (11741838_a_at) / RFU TMPRSS6 (11731388_a_at) / Fold change /veh TMPRSS6 (11731388_a_at) / RFU KRTAP10-2 (11738614_at) / Fold change /veh KRTAP10-2 (11738614_at) / RFU ARHGAP8 /// PRR5-ARHGAP8 (11727945_x_at) / Fold change /veh ARHGAP8 /// PRR5-ARHGAP8 (11727945_x_at) / RFU KRTAP5-7 /// NADSYN1 (11734609_at) / Fold change /veh KRTAP5-7 /// NADSYN1 (11734609_at) / RFU RASL12 (11751679_a_at) / Fold change /veh RASL12 (11751679_a_at) / RFU CDKN2B (11736163_a_at) / Fold change /veh CDKN2B (11736163_a_at) / RFU PRF1 (11729649_at) / Fold change /veh PRF1 (11729649_at) / RFU, ZNF638 /// ZNF638-IT1 / Fold change vs veh, ZNF638 /// ZNF638-IT1 / RFU, PANK3 / Fold change vs veh, PANK3 / RFU, SH3YL1 / Fold change vs veh, SH3YL1 / RFU, ZEB2 / Fold change vs veh, ZEB2 / RFU, NRIP1 / Fold change vs veh, NRIP1 / RFU, PTTG1IP / Fold change vs veh, PTTG1IP / RFU, CAPN2 / Fold change vs veh, CAPN2 / RFU, MED14 / Fold change vs veh, MED14 / RFU, SNORA58 / Fold change vs veh, SNORA58 / RFU, C1orf63 / Fold change vs veh, C1orf63 / RFU, LRRFIP1 / Fold change vs veh, LRRFIP1 / RFU, NDUFAF7 / Fold change vs veh, NDUFAF7 / RFU, SLC12A2 / Fold change vs veh, SLC12A2 / RFU, IBTK / Fold change vs veh, IBTK / RFU, ESF1 / Fold change vs veh, ESF1 / Fold change vs veh, TMEM50B / RFU, TAOK1 / Fold change vs veh, TAOK1 / RFU, ACBD3 / Fold change vs veh, ACBD3 / RFU, TMA16 / Fold change vs veh, TMA16 / RFU, RWDD3 / Fold change vs veh, RWDD3 / RFU, BCAT1 / Fold change vs veh, BCAT1 / RFU, EDEM3 / Fold change vs veh, EDEM3 / RFU, TMEM33 / Fold change vs veh, TMEM33 / RFU, WDR75 / Fold change vs veh, WDR75 / RFU, AHCTF1 / Fold change vs veh, AHCTF1 / RFU, TFRC / Fold change vs veh, TFRC / RFU, ZDHHC17 / Fold change vs veh, ZDHHC17 / RFU, NOM1 / Fold change vs veh, NOM1 / RFU, ARL8B / Fold change vs veh, ARL8B / RFU, ZBTB11 / Fold change vs veh, ZBTB11 / RFU, TAMM41 / Fold change vs veh, TAMM41 / RFU, KIAA1704 /// LOC100996395 / Fold change vs veh, KIAA1704 /// LOC100996395 / RFU, ING1 / Fold change vs veh, ING1 / RFU, TRMT61B / Fold change vs veh, TRMT61B / RFU, FUBP3 / Fold change vs veh, FUBP3 / RFU, TP53 / Fold change vs veh, TP53 / RFU, TNKS2 / Fold change vs veh, TNKS2 / RFU, ZFP14 / Fold change vs veh, ZFP14 / RFU, ACTR2 / Fold change vs veh, ACTR2 / RFU, PPP3R1 / Fold change vs veh, PPP3R1 / RFU, PIK3R1 / Fold change vs veh, PIK3R1 / RFU, HNRNPA1 / Fold change vs veh, HNRNPA1 / RFU, RNF170 / Fold change vs veh, RNF170 / RFU, ZNF28 / Fold change vs veh, ZNF28 / RFU, RNGTT / Fold change vs veh, RNGTT / RFU, OGT / Fold change vs veh, OGT / RFU, BRD1 / Fold change vs veh, BRD1 / RFU, MARS / Fold change vs veh, MARS / RFU, ZNF655 / Fold change vs veh, ZNF655 / RFU, FAHD1 / Fold change vs veh, FAHD1 / RFU, BDP1 / Fold change vs veh, BDP1 / RFU, LRRCC1 / Fold change vs veh, LRRCC1 / RFU, ARID1A / Fold change vs veh, ARID1A / RFU, ZNF146 / Fold change vs veh, ZNF146 / RFU, ZNF330 / Fold change vs veh, ZNF330 / RFU, GPN3 / Fold change vs veh, GPN3 / RFU, C9orf123 / Fold change vs veh, C9orf123 / RFU, N4BP2L2 / Fold change vs veh, N4BP2L2 / RFU, ARFIP1 / Fold change vs veh, ARFIP1 / RFU, FAM179B / Fold change vs veh, FAM179B / RFU, BCL10 / Fold change vs veh, BCL10 / RFU, UHRF1BP1L / Fold change vs veh, UHRF1BP1L / RFU, BET1 / Fold change vs veh, BET1 / RFU, CNOT2 / Fold change vs veh, CNOT2 / RFU, ZNF268 / Fold change vs veh, ZNF268 / Fold change vs veh, ZNF507 / RFU, DGCR2 / Fold change vs veh, DGCR2 / RFU, WDSUB1 / Fold change vs veh, WDSUB1 / Fold change vs veh, HSP90B1 /// MIR3652 / RFU, ADSS / Fold change vs veh, ADSS / RFU, GK / Fold change vs veh, GK / RFU, ZNF148 / Fold change vs veh, ZNF148 / RFU, TAF9 / Fold change vs veh, TAF9 / RFU, SLC1A5 / Fold change vs veh, SLC1A5 / RFU, SLMO2 / Fold change vs veh, SLMO2 / RFU, ABCC4 / Fold change vs veh, ABCC4 / RFU, LOC101060439 /// RAP1B / Fold change vs veh, LOC101060439 /// RAP1B / RFU, RFX7 / Fold change vs veh, RFX7 / RFU, GTPBP10 / Fold change vs veh, GTPBP10 / RFU, CNEP1R1 / Fold change vs veh, CNEP1R1 / RFU, BIVM-ERCC5 /// ERCC5 / Fold change vs veh, BIVM-ERCC5 /// ERCC5 / RFU, ILF3 / Fold change vs veh, ILF3 / RFU 11762660_at / Fold change /veh 11762660_at / RFU VCAN (11757783_s_at) / Fold change /veh VCAN (11757783_s_at) / RFU DDX43 (11728927_at) / Fold change /veh DDX43 (11728927_at) / RFU KRT8 (11758188_x_at) / Fold change /veh KRT8 (11758188_x_at) / RFU NKD1 (11759106_at) / Fold change /veh NKD1 (11759106_at) / RFU SRD5A1 (11742802_a_at) / Fold change /veh SRD5A1 (11742802_a_at) / RFU TPSAB1 /// TPSB2 (11721975_s_at) / Fold change /veh TPSAB1 /// TPSB2 (11721975_s_at) / RFU GSTM3 (11746129_a_at) / Fold change /veh GSTM3 (11746129_a_at) / RFU IL23R (11737362_x_at) / Fold change /veh IL23R (11737362_x_at) / RFU TMEM51 (11727254_a_at) / Fold change /veh TMEM51 (11727254_a_at) / RFU PIWIL2 (11732686_x_at) / Fold change /veh PIWIL2 (11732686_x_at) / RFU ORM1 (11744905_x_at) / Fold change /veh ORM1 (11744905_x_at) / RFU CCDC152 (11743942_at) / Fold change /veh CCDC152 (11743942_at) / RFU ECM1 (11717891_a_at) / Fold change /veh ECM1 (11717891_a_at) / RFU IL23R (11748794_a_at) / Fold change /veh IL23R (11748794_a_at) / RFU TNFAIP8L3 (11732012_x_at) / Fold change /veh TNFAIP8L3 (11732012_x_at) / RFU MBOAT4 (11741988_at) / Fold change /veh MBOAT4 (11741988_at) / RFU 11764193_at / Fold change /veh 11764193_at / RFU TMEM53 (11763286_at) / Fold change /veh TMEM53 (11763286_at) / RFU MAGEB2 (11727129_at) / Fold change /veh MAGEB2 (11727129_at) / RFU TMEM200A (11744735_a_at) / Fold change /veh TMEM200A (11744735_a_at) / RFU CCDC152 (11751479_a_at) / Fold change /veh CCDC152 (11751479_a_at) / RFU FAM211A (11726209_a_at) / Fold change /veh FAM211A (11726209_a_at) / RFU RGS16 (11746705_a_at) / Fold change /veh RGS16 (11746705_a_at) / RFU VCAN (11755009_s_at) / Fold change /veh VCAN (11755009_s_at) / RFU RHOB (11743442_s_at) / Fold change /veh RHOB (11743442_s_at) / RFU RGS16 (11720943_a_at) / Fold change /veh RGS16 (11720943_a_at) / RFU RGS16 (11720944_at) / Fold change /veh RGS16 (11720944_at) / RFU, VPS4B / Fold change vs veh, VPS4B / RFU, CREB1 / Fold change vs veh, CREB1 / RFU, DNAJC13 / Fold change vs veh, DNAJC13 / RFU, GNAQ / Fold change vs veh, GNAQ / RFU, CDK5R1 / Fold change vs veh, CDK5R1 / RFU, ZRANB3 / Fold change vs veh, ZRANB3 / RFU, CUL4A / Fold change vs veh, CUL4A / RFU, CCNY / Fold change vs veh, CCNY / RFU, UFL1 / Fold change vs veh, UFL1 / RFU, COG3 / Fold change vs veh, COG3 / RFU, DIAPH2 / Fold change vs veh, DIAPH2 / RFU, SKA2 / Fold change vs veh, SKA2 / RFU, AFF3 / Fold change vs veh, AFF3 / RFU, LMF1 / Fold change vs veh, LMF1 / RFU, IPO11 / Fold change vs veh, IPO11 / RFU, DFFB / Fold change vs veh, DFFB / RFU, FOXP1 / Fold change vs veh, FOXP1 / RFU, CARD8 / Fold change vs veh, CARD8 / RFU, STRN3 / Fold change vs veh, STRN3 / RFU, ADK / Fold change vs veh, ADK / RFU, RASSF2 / Fold change vs veh, RASSF2 / RFU, WIPF1 / Fold change vs veh, WIPF1 / RFU, LARP1B / Fold change vs veh, LARP1B / RFU, RASA1 / Fold change vs veh, RASA1 / RFU, RB1 / Fold change vs veh, RB1 / RFU, PPFIA1 / Fold change vs veh, PPFIA1 / RFU, MAT2A / Fold change vs veh, MAT2A / RFU, CCT5 / Fold change vs veh, CCT5 / RFU, WDR92 / Fold change vs veh, WDR92 / RFU, CUX1 / Fold change vs veh, CUX1 / RFU, TTC7A / Fold change vs veh, TTC7A / RFU, TMEM135 / Fold change vs veh, TMEM135 / RFU, DEPTOR / Fold change vs veh, DEPTOR / RFU, CPM / Fold change vs veh, CPM / RFU, DNAJB6 / Fold change vs veh, DNAJB6 / RFU, CACNA2D3 / Fold change vs veh, CACNA2D3 / RFU, DTX4 / Fold change vs veh, DTX4 / RFU, TFCP2 / Fold change vs veh, TFCP2 / RFU, GMCL1 /// GMCL1P1 / Fold change vs veh, GMCL1 /// GMCL1P1 / RFU, AEBP2 / Fold change vs veh, AEBP2 / RFU, SNHG1 /// SNORD22 /// SNORD25 /// SNORD26 /// SNORD27 /// SNORD28 /// SNORD29 /// SNORD31 / Fold change vs veh, SNHG1 /// SNORD22 /// SNORD25 /// SNORD26 /// SNORD27 /// SNORD28 /// SNORD29 /// SNORD31 / Fold change (Aza/veh), C12orf56 (ProbeSet 11735607_a_at) / Fold change (ACY-1035/veh), C12orf56 (ProbeSet 11735607_a_at) / Fold change (Aza/veh), FGFR1OP (ProbeSet 11751329_s_at) / Fold change (ACY-1035/veh), FGFR1OP (ProbeSet 11751329_s_at) / Fold change (Aza/veh), VPS36 (ProbeSet 11739960_a_at) / Fold change (ACY-1035/veh), VPS36 (ProbeSet 11739960_a_at) / RFU SYPL1 (11715823_x_at) / Fold change /veh SYPL1 (11715823_x_at) / RFU IGFBP7 (11715501_s_at) / Fold change /veh IGFBP7 (11715501_s_at) / RFU REEP3 (11722064_at) / Fold change /veh REEP3 (11722064_at) / RFU IGLL1 (11728026_x_at) / Fold change /veh IGLL1 (11728026_x_at): dose or concentration left out as unconfirmed
Conditions: MV-4-11 cells, 48 hours

Nc1ncn([C@@H]2O[C@H](CO)[C@@H](O)[C@H]2O)c(=O)n1 [azacitidine]
RFU RGS16 (11720944_at): 63.78 RFU

From publication PMC5218480 (PLoS ONE, 2017)
